Test results as given in PubChem BioAssay (NCI).
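Cultured in 96-well plates, cells were exposed to test compound for 48 hours across five concentrations. Here, GI50 denotes the concentration required for 50% inhibition of growth. TGI: total growth inhibition.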

Key:
Test in all cases: growth of human tumour cells (NCI), 48 h
[1] = system: ACHN renal
[2] = system: HCT-116 colon
[3] = system: HOP-92 NSCLC
[4] = system: HS 578T breast
[5] = system: MCF7 breast
[6] = system: OVCAR-4 ovarian
[7] = system: OVCAR-8 ovarian
[8] = system: SK-MEL-5 melanoma
[9] = system: SK-OV-3 ovarian
[10] = system: SR leukemia

| SMILES | TGI [1] | TGI [2] | GI50 [3] | TGI [3] | TGI [4] | GI50 [5] | TGI [5] | GI50 [6] | TGI [6] | GI50 [7] | TGI [7] | GI50 [8] | TGI [8] | GI50 [9] | TGI [9] | GI50 [10] | TGI [10] | GI50 [1] | GI50 [2] | GI50 [4] |
| --- | --- | --- | --- | --- | --- | --- | --- | --- | --- | --- | --- | --- | --- | --- | --- | --- | --- | --- | --- | --- |
| C[C@@H]1CC[C@@]2(OC1)O[C@H]1C[C@H]3[C@@H]4CC=C5C[C@@H](O[C@@H]6O[C@H](CO)[C@@H](O[C@@H]7O[C@@H](CO)[C@H](O)[C@H]7O)[C@H](O)[C@H]6O[C@@H]6O[C@@H](C)[C@H](O)[C@@H](O)[C@H]6O)CC[C@]5(C)[C@H]4CC[C@]3(C)[C@H]1[C@@H]2C | 2.12 µM | 2.09 µM | 0.806 µM | 2.1 µM | 2.49 µM | 1.8 µM | 3.3 µM | 1.36 µM | 2.71 µM | 0.657 µM | 1.96 µM | 1.6 µM | 2.95 µM | 1.62 µM | 3.04 µM | 0.565 µM | 2.39 µM | – | – | – |
| C[Se]C(=O)CC1=C2C=C(F)C=CC2/C(=C\c2ccc(S(C)=O)cc2)C1C (configuration not stated) | 3.07 µM | 1.64 µM | 0.165 µM | 0.417 µM | 2.36 µM | 0.152 µM | 10.4 µM | 0.131 µM | 7.05 µM | 0.0447 µM | > 100 µM | 0.111 µM | 0.266 µM | 0.0493 µM | 1.58 µM | 1.17 µM | > 100 µM | 0.154 µM | 0.119 µM | 0.0886 µM |
| Oc1c(CN2CCCC2)cc(COCc2ccccc2)c2cccnc12 | 10.2 µM | 11 µM | 7.15 µM | 26.6 µM | 58.7 µM | 2.82 µM | 13.3 µM | 0.903 µM | 13.6 µM | 2.53 µM | 12 µM | 1.12 µM | 4.76 µM | 2.02 µM | 9.27 µM | 1.83 µM | 16.9 µM | 0.358 µM | 2.65 µM | 8.71 µM |
| O=C1/C(=C/c2cccs2)CCC/C1=C\c1cccs1 | > 100 µM | > 100 µM | 10.6 µM | 57.8 µM | > 100 µM | 0.529 µM | > 100 µM | 14.6 µM | 45.2 µM | 51.6 µM | > 100 µM | > 100 µM | > 100 µM | 26.5 µM | 74.2 µM | > 94.9 µM | > 100 µM | 57 µM | > 100 µM | 29.2 µM |
| C[C@H]1[C@@H](OCC(CO[C@H]2O[C@@H]3O[C@@]4(C)CC[C@H]5[C@H](C)CC[C@@H]([C@H]2C)[C@@]35OO4)=NOCC(=O)O)OC2O[C@@]3(C)CC[C@H]4[C@H](C)CC[C@@H]1[C@@]24OO3 (some centres not stated) | 14.5 µM | 13.7 µM | < 0.01 µM | 0.0621 µM | 22.4 µM | 0.212 µM | 17.6 µM | 0.0565 µM | 18.2 µM | 0.0332 µM | 16.4 µM | 0.0288 µM | 14.9 µM | 0.786 µM | 19.6 µM | < 0.01 µM | 11.8 µM | 0.188 µM | < 0.01 µM | 0.719 µM |
| CC#CC(=O)N1CCC[C@H]1c1nc(-c2ccc(C(=O)Nc3ccccn3)cc2)c2c(N)nccn12 | > 100 µM | > 100 µM | 25.1 µM | > 100 µM | > 100 µM | 58 µM | > 100 µM | 58 µM | > 100 µM | > 80.4 µM | > 100 µM | 40.5 µM | > 100 µM | 2.25 µM | > 100 µM | 43.8 µM | > 100 µM | 23.8 µM | > 76 µM | > 72.5 µM |
| COc1ccccc1-n1c(SCc2cc(OC)c(OC)c(OC)c2)nc2ccc(Cl)cc2c1=O | > 100 µM | > 100 µM | 2.78 µM | 99.6 µM | > 100 µM | 0.915 µM | > 100 µM | 7.35 µM | > 100 µM | 8.86 µM | > 100 µM | 1.47 µM | > 100 µM | 7.76 µM | > 100 µM | 0.538 µM | > 100 µM | 7.07 µM | 2.53 µM | 5.81 µM |
| C=C1C(C)C2C(Cc3ccccc3)NC(=O)C23C(OC(C)=O)/C=C/C(C)(O)CC(C)C/C=C/C3C1O (configuration not stated) | > 100 µM | > 100 µM | – | 1.01 µM | 0.62 µM | – | > 94.5 µM | – | 82.9 µM | – | > 100 µM | – | 35.6 µM | – | 46.6 µM | – | > 59.9 µM | – | – | – |
| NC(CSC(c1ccccc1)(c1ccccc1)c1ccc2ccccc2c1)C(=O)O (configuration not stated) | 30.8 µM | 0.958 µM | 0.215 µM | 23.2 µM | 0.0832 µM | 0.0321 µM | 21.9 µM | 13.1 µM | 33.2 µM | 0.0804 µM | 21.3 µM | 0.0438 µM | 11.5 µM | 0.0806 µM | 29.6 µM | 0.0869 µM | > 40.5 µM | 0.911 µM | 0.0312 µM | 0.0267 µM |
| COc1ccc([C@H]2O[C@@H](CO)C[C@]2(O)c2ccc(OC)cc2)cc1 | > 100 µM | > 100 µM | 95.6 µM | > 100 µM | > 100 µM | > 100 µM | > 100 µM | > 100 µM | > 100 µM | > 100 µM | > 100 µM | > 100 µM | > 100 µM | > 100 µM | > 100 µM | 49.8 µM | > 100 µM | > 100 µM | > 100 µM | 39.5 µM |
